From publication PMC3409115, “Diverse Inhibitor Chemotypes Targeting Trypanosoma cruzi CYP51” (PLoS Neglected Tropical Diseases, 2012) come the findings set out here.

What all share (assay type): cell-based, Trypanosoma cruzi
Assay [1] has as its system T. cruzi-infected skeletal myoblasts (intracellular amastigotes). Description: Hit cross-validation in T. cruzi-infected mammalian cells (image-based assay). The following applies: for Intracellular amastigotes in DAPI images after 72 h treatment: Compound 1 at 0.123 µM and 10 µM, Compound 13 at 10 µM; for EC50: Trypanosoma cruzi, Myoblast.
The test system of assay [2] is T. cruzi trypomastigote strain CAI/72 in C2C12 myoblasts. The experiment in a line: Trypanocidal assay. The following applies: 14 days treatment, then one week compound-free. The method, then:
Compounds cross-validated with low EC50 against T. cruzi infected cells were further evaluated to determine the “cidal” concentration at which host cells are effectively cured, using the protocol adapted from Engel et al 1998 [30]. To allow long term treatment and avoid culture overgrowth, C2C12 myoblasts were seeded at low density in 96 well plates (10^3 cells/well) and cultured with DMEM H-21 medium supplemented with low FBS concentration (1%), 25 mM HEPES, 2 mM L-glutamine, 100 U/ml penicillin and 100 µg/ml streptomycin. The cells were infected with T. cruzi trypomastigote strain CAI/72 (5 parasites/cell) for 24 h and treated with 0, 0.04, 0.12, 0.37, 1.10, 3.30 or 10 µM test compounds in 100 µl of medium for 14 days. During the course of treatment, medium supplemented with test compounds was replaced every 72 h. After 14 days, drug pressure was withdrawn and incubation continued in the compound-free medium for another week, during which cultures were monitored for reappearance of T. cruzi trypomastigotes in the supernatant.

Assay [3] relates to sterol biosynthesis in T. cruzi amastigotes. The experiment in a line: Lipid analysis of T. cruzi amastigotes (GC-MS of membrane sterols). The following applies: amastigotes in C2C12 myoblasts, 24 h drug treatment, concentrations 5x below cidal; posaconazole 100 nM. The method, then:
To grow intracellular amastigotes for lipid analysis, C2C12 mouse skeletal myoblasts (4×10^6 cells) cultured in 150 cm^2 flasks as described above were infected with 80×10^6 trypomastigotes for 24 h. The cultures were treated with test compounds 72 h post-infection at concentrations 5× below cidal to avoid completely killing the parasites. Posaconazole at 100 nM was used as a positive control. […] Cells were harvested 96 h post-infection and after 24 h of drug treatment. Cell detachment was initiated by brief treatment with 10 ml of 0.25% trypsin in PBS, followed promptly by replacement with 10 ml of fresh media containing FBS. Harvested cells were washed 3× with 25 ml of PBS to remove FBS and released trypomastigotes. The suspension of infected cells was then transferred to a glass tube and centrifuged at 2000 rpm for 5 min. After washing with PBS, 2 ml of chloroform-methanol solution (2∶1 ratio) was added to re-suspend the cell pellet. Organic solvents were then evaporated under N2 flow, allowing the pellet to dry.
For total lipid extraction, the dry cell pellet was treated with 2 ml chloroform for 24 h. Polar molecules were removed by washing the organic phase 3× with 3 ml water. The organic phase containing the sterols was subsequently dried on an evaporator under N2 flow. The lipids were re-suspended in 2 ml of chloroform-methanol (9∶1 ratio), washed again 3× with 3 ml water, dried under N2 flow and re-suspended in acetonitrile. After an additional wash 3× with 3 ml water, the acetonitrile was dried under an N2 stream. Extracted dry sterols were re-dissolved in hexane and derivatized with N,N-bis(trimethylsilyl)-2,2,2-trifluoroacetamide (BSTFA) (Pierce) by incubating at 37°C for at least 2 hours. Sterols as their trimethylsilyl (TMS) derivatives were analyzed by gas chromatography and mass spectrometry (GC-MS). GC-MS analysis and lipid identification were performed as described previously.

Entries after “also recorded” stand apart in the source; their conditions may differ. Read-outs that look alike come from different tables or passages of the source.

With `Brc1ccccc1OCCCCCCn1ccnc1` [Compound 1], the “Intracellular amastigotes in DAPI images after 72 h treatment” value in assay [1] is on record as “elimination of intracellular amastigotes”. The EC50 in assay [1] (72 h, T. cruzi-infected myoblasts, 72 h treatment, read-out: EC50 in image-based HTS cross-validation assay) is 70 nM; in assay [1] (in Mus musculus, T. cruzi amastigotes cultured in mouse myoblasts, averaged from two independent assays, read-out: EC50 in low throughput validation (repurchased hit)) it was 17 nM. In assay [2], this compound displayed a Trypanocidal concentration of 40 nM. In addition, the “Effect on membrane sterol composition by GC-MS” value in assay [3] was “lanosterol (f) and eburicol (h) dominated the GC-MS traces; also recorded: fecosterol (e) was completely inhibited; also recorded: suppressed sterol biosynthesis in T. cruzi amastigotes more efficiently than posaconazole”.

For `O=C(c1ccc(Cl)cc1)C(Oc1ccc(Cl)cc1)n1cncn1` (stereo not shown) [Compound 13, 2-(4-chlorophenoxy)-1-(4-chlorophenyl)-2-(1H-1,2,4-triazol-1-yl)ethanone], the “Intracellular amastigotes in DAPI images after 72 h treatment” value in assay [1] is recorded as “elimination of intracellular amastigotes”. The EC50 in assay [1] (72 h, T. cruzi-infected myoblasts, 72 h treatment, repurchased compound, read-out: EC50 averaged from two independent cross-validation assays for individually repurchased hits) is 1300 nM; in assay [1] (72 h, T. cruzi-infected myoblasts, 72 h treatment, read-out: EC50 against T. cruzi parasites in HTS assay used to rank order the hits), 1310 nM. The Trypanocidal concentration in assay [2] stood at 2500 nM. Further, the “Effect on membrane sterol composition by GC-MS” value in assay [3] was “present in amounts comparable to those of 14-demethylated products; also recorded: increase in lanosterol and eburicol precursors and a concomitant decline in episterol, fecosterol and other 14-demethylated intermediates”.

For orientation: EC50 means the midpoint of the concentration-response curve.
